How the values were obtained:
Experiment in all cases: in vitro antibacterial evaluation, MIC by broth dilution
Assay type in all cases: cell-based
[1] = tested on: Escherichia coli; settings: 18 hours at 35° C.
[2] = tested on: Staphylococcus sp.; settings: broth dilution, 18 hours at 35° C.
How it was run: (§1)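 Read-out: the lowest concentration at which the test strain fails to grow. Serial dilutions (64-0.06 μg/mL) in Muller-Hinton II […], 5×10^5 CFU/mL inoculum, NCCLS M7-A2 procedure.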

[3] = tested on: Streptococcus sp.; settings: broth dilution, 18 hours at 35° C.
How it was run: as §1

[4] = tested on: Enterococcus sp.; settings: broth dilution, 18 hours at 35° C.
How it was run: as §1

COc1ccc2cc(COC3C(OC4C(CO)OC(Oc5ccc(CC6NC(=O)C(C(C)c7ccccc7)NC(=O)CNC(=O)C(CO)NC(=O)C(CC7CNC(=N)N7C7OC(CO)C(O)C(O)C7O)NC(=O)C(CC7CNC(=N)N7)NC6=O)cc5)C(O)C4O)OC(CO)C(O)C3O)ccc2c1 (stereo not shown) [Example 245c]
128 µg/mL: MIC Coagulase Negative Staphylococcus (GC 4547) [2] | MIC Coagulase Negative Staphylococcus (GC 4548) [2] | MIC Coagulase Negative Staphylococcus (GC 4551) [2] | MIC Staphylococcus aureus (ATCC 29213) [2] | MIC Staphylococcus aureus (GC 3051) [2] | MIC Staphylococcus aureus (GC 4541) [2] | MIC Staphylococcus aureus (GC 4542) [2] | MIC Staphylococcus aureus (GC 4544) [2] | MIC Staphylococcus aureus (GC 4545) [2] | MIC Staphylococcus aureus-SMITH (GC 4543) [2] | MIC Staphylococcus haemolyticus (GC 4546) [2] | MIC Staphylococcus aureus (ATCC 29213) ([2]; strain ATCC 29213) | MIC Staphylococcus aureus (GC 3051) ([2]; strain GC 3051) | MIC Staphylococcus aureus (GC 4541) ([2]; strain GC 4541) | MIC Staphylococcus aureus (GC 4542) ([2]; strain GC 4542) | MIC Staphylococcus aureus-SMITH (GC 4543) ([2]; strain GC 4543) | MIC Staphylococcus aureus (GC 4544) ([2]; strain GC 4544) | MIC Staphylococcus aureus (GC 4545) ([2]; strain GC 4545) | MIC Staphylococcus haemolyticus (GC 4546) ([2]; strain GC 4546) | MIC Coagulase Negative Staphylococcus (GC 4547) ([2]; strain GC 4547) | MIC Coagulase Negative Staphylococcus (GC 4548) ([2]; strain GC 4548) | MIC Coagulase Negative Staphylococcus (GC 4551) ([2]; strain GC 4551) | MIC Streptococcus agalactiae (GC 4564) [3] | MIC Streptococcus pyogenes (GC 4563) [3] | MIC Streptococcus pyogenes (GC 4563) ([3]; inoculum 5×10^5 CFU/mL, strain GC 4563) | MIC Streptococcus agalactiae (GC 4564) ([3]; inoculum 5×10^5 CFU/mL, strain GC 4564)
64 µg/mL: MIC Coagulase Negative Staphylococcus (GC 4549) [2] | MIC Coagulase Negative Staphylococcus (GC 6257) [2] | MIC Coagulase Negative Staphylococcus (GC 4549) ([2]; strain GC 4549) | MIC Coagulase Negative Staphylococcus (GC 6257) ([2]; strain GC 6257) | MIC Streptococcus pneumoniae (ATCC 6301) [3] | MIC Streptococcus pneumoniae (GC 4565) [3] | MIC Streptococcus pneumoniae (ATCC 6301) ([3]; inoculum 5×10^5 CFU/mL, strain ATCC 6301) | MIC Streptococcus pneumoniae (GC 4565) ([3]; inoculum 5×10^5 CFU/mL, strain GC 4565) | MIC Enterococcus faecium (GC 4557) [4] | MIC Enterococcus faecium (GC 4557) ([4]; strain GC 4557)
32 µg/mL: MIC Escherichia coli (GC 4560) [1] | MIC Streptococcus pneumoniae (GC 1894) [3] | MIC Streptococcus pneumoniae (GC 1894) ([3]; inoculum 5×10^5 CFU/mL, strain GC 1894)
>128 µg/mL: MIC Escherichia coli (ATCC 25922) [1] | MIC Escherichia coli (GC 4559) [1] | MIC Staphylococcus aureus (GC 1131) [2] | MIC Staphylococcus aureus (GC 3053) [2] | MIC Staphylococcus aureus (GC 1131) ([2]; strain GC 1131) | MIC Staphylococcus aureus (GC 3053) ([2]; strain GC 3053) | MIC Enterococcus avium (GC 4558) [4] | MIC Enterococcus faecalis (ATCC 29212) [4] | MIC Enterococcus faecalis (GC 2242) [4] | MIC Enterococcus faecalis (GC 2691) [4] | MIC Enterococcus faecalis (GC 3059) [4] | MIC Enterococcus faecalis (GC 4552) [4] | MIC Enterococcus faecalis (GC 4553) [4] | MIC Enterococcus faecalis (GC 4554) [4] | MIC Enterococcus faecalis (GC 6189) [4] | MIC Enterococcus faecium (GC 2243) [4] | MIC Enterococcus faecium (GC 4556) [4] | MIC Enterococcus faecalis (ATCC 29212) ([4]; strain ATCC 29212) | MIC Enterococcus faecium (GC 2243) ([4]; strain GC 2243) | MIC Enterococcus faecalis (GC 4552) ([4]; strain GC 4552) | MIC Enterococcus faecalis (GC 4553) ([4]; strain GC 4553) | MIC Enterococcus faecalis (GC 4554) ([4]; strain GC 4554) | MIC Enterococcus faecium (GC 4556) ([4]; strain GC 4556) | MIC Enterococcus avium (GC 4558) ([4]; strain GC 4558) | MIC Enterococcus faecalis (GC 6189) ([4]; strain GC 6189) | MIC Enterococcus faecalis (GC 2242) ([4]; inoculum 5×10^5 CFU/mL, strain GC 2242) | MIC Enterococcus faecalis (GC 2691) ([4]; inoculum 5×10^5 CFU/mL, strain GC 2691) | MIC Enterococcus faecalis (GC 3059) ([4]; inoculum 5×10^5 CFU/mL, strain GC 3059)
